This assay addresses T1, PTPbeta catalytic domain [SEQ ID NO: 7] (Homo sapiens, UniProt P23467).
T1 construct: made in house; host or cells: Escherichia coli BL21-RIL
Briefly: Inhibition of HPTPbeta (relative inhibitor potency, stated in words). Type of assay: biochemical. The note with it: qualitative comparison; no numerical values or assay method printed.

T1 sequence (P23467 with tags, fused parts or gaps): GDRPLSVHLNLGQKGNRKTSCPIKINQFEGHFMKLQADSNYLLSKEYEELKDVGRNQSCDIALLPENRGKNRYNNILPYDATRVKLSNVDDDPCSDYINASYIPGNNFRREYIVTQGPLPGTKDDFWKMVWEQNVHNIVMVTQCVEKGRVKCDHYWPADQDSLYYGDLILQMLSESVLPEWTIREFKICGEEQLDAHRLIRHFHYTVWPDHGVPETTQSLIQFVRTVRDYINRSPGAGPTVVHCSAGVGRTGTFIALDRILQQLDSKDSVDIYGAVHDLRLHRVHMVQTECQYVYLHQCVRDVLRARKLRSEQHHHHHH

For the compound `CNC(=O)[C@H](Cc1ccc(NS(=O)(=O)O)cc1)NC(=O)C(Cc1ccc(O)cc1)NC(=O)OC(C)(C)C` (stereo in doubt) [Compound 2, {2-(4-Hydroxy-phenyl)-1-[1-methylcarbamoyl-2-(4-sulfoamino-phenyl)-ethylcarbamoyl]-ethyl}-carbamic acid tert-butyl ester], the “inhibitor potency relative to Compound 1” value is given as “more potent inhibitor than Compound 1”.

For the origin of these results see patent US7507568B2, “Three dimensional coordinates of HPTPbeta” (The Proctor & Gamble Company, priority 2002, dated 2009).
